# In US5519029A, “2-aminoalkyl-5-aminoalkylamino substituted-isoquinoindazole-6(2H)-ones” (Boehringer Mannheim Italia, S.p.A., priority 1993, dated 1996):
# Entries after “also recorded” stand apart in the source; their conditions may differ. Where two headings read alike, the source gives them in different places.
# Tests used:
# [1] = tested on: Lovo/DX; test: MTT cytotoxicity assay, multidrug-resistant subline Lovo/DX; type: cell-based, human; settings: for IC50: Homo sapiens, read-out: IC50 LOVO/DX; for RI (resistance index): ratio of the IC50 for the resistant line cell to the IC50 for the sensitive cell line; for cross resistance / resistance in Lovo/DX (in words): Lovo/DX subline
# Experimental: (§1) The evaluation of the biological activity for the compounds of this invention was performed in vitro and in vivo following the protocols developed by the U.S. National Cancer Institute.
# (§2) The evaluation of the in vitro cytotoxic activity of the compounds of the invention was performed using a human colon adenocarcinoma cell line (Lovo) isolated from a metastatic nodule, and a subline expressing multidrug resistance. The subline is resistant to a number of antitumor agents, among which are doxorubicin, VP-16, and vincristine.
# [2] = tested on: human colon adenocarcinoma cell line (Lovo); test: MTT cytotoxicity assay, Lovo cell line; type: cell-based; settings: read-out: IC50 LOVO
# Experimental: as §1, §2
# [3] = rat; cited from earlier work
# [4] = dose limiting, phase I and phase II; cited from earlier work
# [5] = tested on: Lovo/DX; settings: characterisation of subline (Grandi et al. 1986); cited from earlier work
# [6] = in vivo; cited from earlier work
# [7] = cited from earlier work; for cardiotoxicity in animals (in words): animal studies
# [8] = tested on: advanced breast cancer, acute leukemia and lymphoma; settings: clinical trials; cited from earlier work
# [9] = i.p., non-tumor bearing rats, equieffective antitumor dosages; cited from earlier work
# [10] = mostly in patients previously treated with doxorubicin; cited from earlier work
# [11] = tested on: cell histotypes developing resistance against doxorubicin mediated by overexpression of glycoprotein P; settings: doxorubicin-resistant cells; cited from earlier work
# [12] = Lovo/DX (resistant) cells, MTT assay
# [13] = Lovo (sensitive) cells, MTT assay
smiles,measurement,setting,value
CN(C)CCNc1ccc2c3c(nn2CCN)-c2cnccc2C(=O)c13,IC50,[1]; [12],5 µg/mL
same,RI (resistance index),[1],16.7
same,IC50,[2]; [13],0.3 µg/mL
CN(C)CCn1nc2c3c(c(NCCN)ccc31)C(=O)c1ccncc1-2,IC50,[1]; [12],22.4 µg/mL
same,RI (resistance index),[1],44.8
same,IC50,[2]; [13],0.5 µg/mL
CN(C)CCNc1ccc2c3c(nn2CCN(C)C)-c2cnccc2C(=O)c13,IC50,[1]; [12],0.9 µg/mL
same,RI (resistance index),[1],1.8
same,IC50,[2]; [13],0.5 µg/mL
O=C1c2c(O)cccc2-c2nn(CCNCCO)c3ccc(NCCNCCO)c1c23 [CI-941],nephrotoxicity (in words),[3],marked nephrotoxicity
same,"neutropenia, W.H.O. grade",[4],4 W.H.O. grade
COc1cccc2c1C(=O)c1c(O)c3c(c(O)c1C2=O)C[C@@](O)(C(=O)CO)C[C@@H]3O[C@H]1C[C@H](N)[C@H](O)[C@H](C)O1 [DOXORUBICIN],IC50,[1]; [12],66.6 µg/mL
same,RI (resistance index),[1],74
same,resistance / accumulation in Lovo/DX subline (in words),[5],resistant; also recorded: reduced accumulation
same,IC50,[2]; LoVo,0.9 µg/mL
"O=C1c2c(O)ccc(O)c2C(=O)c2c(NCCNCCO)ccc(NCCNCCO)c21 [MITOXANTRONE, 5,8-dihydroxy-1,4-bis{[2-(2-hydroxyethylamino)ethyl]amino}anthracene-9,10-dione]",IC50,[1]; LoVo/DX,0.9 µg/mL
same,cross resistance / resistance in Lovo/DX (in words),[1],acquired resistance
same,IC50,[2]; LoVo,0.04 µg/mL
same,myelodepressive toxicity (in words),[6],remarkable myelodepressive toxicity
same,cardiotoxicity in animals (in words),[7],diminished cardiotoxicity in comparison to doxorubicin
same,clinical antitumor activity (in words),[8],"particularly promising activity in the treatment of advanced breast cancer, acute leukemia and lymphoma"
same,delayed toxicity (in words),[9],delayed toxicity is observed only with mitoxantrone
same,clinical cardiotoxicity (in words),[10],some clinical cardiotoxicity has been observed
COc1cc([C@@H]2c3cc4c(cc3[C@@H](O[C@@H]3O[C@@H]5CO[C@@H](C)O[C@H]5[C@H](O)[C@H]3O)[C@H]3COC(=O)[C@H]23)OCO4)cc(OC)c1O [VP-16],resistance / accumulation in Lovo/DX subline (in words),[5],resistant
"O=C1c2ccccc2C(=O)c2c(NCCNCCO)ccc(NCCNCCO)c21 [ametantrone, 1,4-bis{[2-(2-hydroxyethylamino)ethyl]amino}anthracene-9,10-dione]",cross resistance / resistance in Lovo/DX (in words),[1],acquired resistance
same,myelodepressive toxicity (in words),[6],remarkable myelodepressive toxicity
same,cardiotoxicity in animals (in words),[7],less cardiotoxic than mitoxantrone
same,potency relative to mitoxantrone (fold less potent),[7]; in animals,about 10 fold
same,cross-resistance (in words),[11],cross-resistance
CC[C@]1(O)C[C@H]2CN(CCc3c([nH]c4ccccc34)[C@@](C(=O)OC)(c3cc4c(cc3OC)N(C=O)[C@H]3[C@@](O)(C(=O)OC)[C@H](OC(C)=O)[C@]5(CC)C=CCN6CC[C@]43[C@@H]65)C2)C1 [vincristine],resistance / accumulation in Lovo/DX subline (in words),[5],resistant
